Source: ChEMBL document CHEMBL1144830, “Synthesis of small molecule inhibitors of the orphan nuclear receptor steroidogenic factor-1 (NR5A1) based on isoquinolinone scaffolds” (Bioorg Med Chem Lett, 2008)

Molecular target: not listed separately
Test: Inhibition of HSV1 GAL4-tagged VP16 by luciferase assay

Row | Compound | IC50 [µM]
1 | CCCCOc1cccc2c(=O)n(CC(=O)Nc3ccc4c(c3)OCCO4)ccc12 | 24.1
2 | CCOC(=O)C(C)Oc1cccc2c(=O)n(CC(=O)Nc3ccc4c(c3)OCCO4)ccc12 (stereo unspecified) | > 33
3 | CCOC(=O)C(C)(C)Oc1cccc2c(=O)n(CC(=O)Nc3ccc4c(c3)OCCO4)ccc12 | > 33

Second part, the compound after the results:

Row | IC50 [µM] | Compound
4 | > 33 | CCOC(=O)C(C)Oc1cccc2c(=O)n(CC(=O)Nc3ccc(C)cc3)ccc12 (stereo unspecified)
5 | > 33 | CCOC(=O)C(C)Oc1cccc2c(=O)n(CC(=O)NCc3ccc4c(c3)OCO4)ccc12 (stereo unspecified)
6 | > 33 | CCOC(=O)C(C)Oc1cccc2c(=O)n(CC(=O)Nc3ccc(CC)cc3)ccc12 (stereo unspecified)
7 | 24.2 | CCOC(=O)C(C)Oc1cccc2c(=O)n(CC(=O)Nc3ccc(OCC)cc3)ccc12 (stereo unspecified)

Molecular target: T1, Nuclear receptor ROR-alpha (Homo sapiens) (UniProt P35398)
T1 sequence (whole entry): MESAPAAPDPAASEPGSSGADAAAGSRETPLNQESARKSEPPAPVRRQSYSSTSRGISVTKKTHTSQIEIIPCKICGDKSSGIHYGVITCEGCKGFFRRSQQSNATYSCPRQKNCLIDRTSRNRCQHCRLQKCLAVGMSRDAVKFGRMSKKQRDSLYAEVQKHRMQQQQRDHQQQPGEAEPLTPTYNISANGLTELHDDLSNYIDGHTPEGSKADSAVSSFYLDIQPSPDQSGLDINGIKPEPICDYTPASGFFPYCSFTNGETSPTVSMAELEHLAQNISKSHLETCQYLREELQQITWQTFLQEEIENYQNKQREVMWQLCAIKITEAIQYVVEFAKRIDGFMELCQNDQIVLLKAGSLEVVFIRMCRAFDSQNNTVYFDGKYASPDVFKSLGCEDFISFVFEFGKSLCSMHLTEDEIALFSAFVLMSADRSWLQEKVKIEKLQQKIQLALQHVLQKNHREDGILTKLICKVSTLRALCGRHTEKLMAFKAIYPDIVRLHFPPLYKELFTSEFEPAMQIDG
Test: Inhibition of GAL4-tagged RORalpha at 100 uM by luciferase assay

Row | Compound | inhibition [%]
8 | CCOC(=O)C(C)Oc1cccc2c(=O)n(C(Cc3ccccc3)C(=O)Nc3ccc4c(c3)OCCO4)ccc12 (stereo unspecified) | < 50
9 | CCOC(=O)C(C)Oc1cccc2c(=O)n(CCC(=O)Nc3ccc4c(c3)OCCO4)ccc12 (stereo unspecified) | < 50
10 | CCOC(=O)C(C)Oc1cccc2c(=O)n(CC(=O)N(C)c3ccc4c(c3)OCCO4)ccc12 (stereo unspecified) | < 50
11 | CCOC(=O)C(C)Oc1cccc2c(=O)n(CC(=O)Nc3ccc([N+](=O)[O-])cc3)ccc12 (stereo unspecified) | < 50
12 | CCOC(=O)C(C)Oc1cccc2c(=O)n(C(C)C(=O)Nc3ccc4c(c3)OCCO4)ccc12 (stereo unspecified) | < 50
13 | CCOC(=O)C(C)Oc1cccc2c(=O)n(CC(=O)NC3CCCCC3)ccc12 (stereo unspecified) | < 50
14 | CCCCNC(=O)Cn1ccc2c(OC(C)C(=O)OCC)cccc2c1=O (stereo unspecified) | < 50
15 | CCOC(=O)C(C)Oc1ccc2c(=O)n(CC(=O)Nc3ccc4c(c3)OCCO4)ccc2c1 (stereo unspecified) | < 50
16 | CCOC(=O)C(C)(C)Oc1cccc2c(=O)n(CC(=O)Nc3ccc4c(c3)OCCO4)ccc12 | < 50

Results, then the compound that gave them:

Row | inhibition [%] | Compound
17 | < 50 | CCOC(=O)C(C)Oc1cccc2c(=O)n(CC(=O)Nc3ccc(OC(F)(F)F)cc3)ccc12 (stereo unspecified)
18 | < 50 | CCOC(=O)C(C)Oc1cccc2c(=O)n(CC(=O)Nc3ccc(OC)cc3)ccc12 (stereo unspecified)

Tested on: not listed separately
Test: Inhibition of HSV1 GAL4-tagged VP16 at 100 uM by luciferase assay

Row | Compound | inhibition [%]
19 | CCOC(=O)C(C)Oc1cccc2c(=O)n(C(Cc3ccccc3)C(=O)Nc3ccc4c(c3)OCCO4)ccc12 (stereo unspecified) | < 50
20 | CCOC(=O)C(C)Oc1cccc2c(=O)n(CCC(=O)Nc3ccc4c(c3)OCCO4)ccc12 (stereo unspecified) | < 50
21 | CCOC(=O)C(C)Oc1cccc2c(=O)n(CC(=O)NCc3ccco3)ccc12 (stereo unspecified) | < 50
22 | CCOC(=O)C(C)Oc1cccc2c(=O)n(CC(=O)NCc3ccccc3)ccc12 (stereo unspecified) | < 50
23 | CCOC(=O)C(C)Oc1cccc2c(=O)n(CC(=O)N(C)c3ccc4c(c3)OCCO4)ccc12 (stereo unspecified) | < 50
24 | CCOC(=O)C(C)Oc1cccc2c(=O)n(CC(=O)NCc3ccc(F)cc3)ccc12 (stereo unspecified) | < 50
25 | CCOC(=O)C(C)Oc1cccc2c(=O)n(CC(=O)Nc3ccc([N+](=O)[O-])cc3)ccc12 (stereo unspecified) | < 50
26 | CCOC(=O)C(C)Oc1cccc2c(=O)n(C(C)C(=O)Nc3ccc4c(c3)OCCO4)ccc12 (stereo unspecified) | < 50
27 | CCOC(=O)C(C)Oc1cccc2c(=O)n(CC(=O)NC3CCCCC3)ccc12 (stereo unspecified) | < 50
28 | CCCCNC(=O)Cn1ccc2c(OC(C)C(=O)OCC)cccc2c1=O (stereo unspecified) | < 50
29 | CCOC(=O)C(C)Oc1ccc2c(=O)n(CC(=O)Nc3ccc4c(c3)OCCO4)ccc2c1 (stereo unspecified) | < 50

Results, then the compound that gave them:

Row | inhibition [%] | Compound
30 | < 50 | CCOC(=O)C(C)Oc1cccc2c(=O)n(CC(=O)NCCc3ccccc3)ccc12 (stereo unspecified)
31 | < 50 | CCOC(=O)C(C)Oc1cccc2c(=O)n(CC(=O)Nc3ccc(OC(F)(F)F)cc3)ccc12 (stereo unspecified)
32 | < 50 | CCCCc1ccc(NC(=O)Cn2ccc3c(OC(C)C(=O)OCC)cccc3c2=O)cc1 (stereo unspecified)
33 | < 50 | CCOC(=O)C(C)Oc1cccc2c(=O)n(CC(=O)Nc3ccc(OC)cc3)ccc12 (stereo unspecified)

Molecular target: T2, Steroidogenic factor 1 (Homo sapiens, UniProt Q13285)
Test: Inhibition of GAL4-tagged NR5A1 by luciferase assay

T2 sequence (Q13285 whole entry, the tested form may be a part): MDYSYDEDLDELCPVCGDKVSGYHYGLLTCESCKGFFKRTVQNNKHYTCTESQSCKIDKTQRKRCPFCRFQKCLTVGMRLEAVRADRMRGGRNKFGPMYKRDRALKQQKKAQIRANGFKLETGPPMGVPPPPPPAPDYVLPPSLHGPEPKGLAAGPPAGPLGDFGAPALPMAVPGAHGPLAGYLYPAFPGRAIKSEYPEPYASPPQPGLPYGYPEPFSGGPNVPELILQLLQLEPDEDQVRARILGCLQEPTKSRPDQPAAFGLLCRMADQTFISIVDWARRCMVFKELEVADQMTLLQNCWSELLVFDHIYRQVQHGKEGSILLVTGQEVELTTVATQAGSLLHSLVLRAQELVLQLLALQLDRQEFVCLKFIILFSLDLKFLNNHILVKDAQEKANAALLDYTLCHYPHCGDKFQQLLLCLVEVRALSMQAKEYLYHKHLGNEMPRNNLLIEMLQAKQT

Row | Compound | IC50 [µM]
34 | CCOC(=O)C(C)Oc1cccc2c(=O)n(CCC(=O)Nc3ccc4c(c3)OCCO4)ccc12 (stereo unspecified) | 8.46
35 | CCOC(=O)C(C)Oc1cccc2c(=O)n(CC(=O)NCc3ccco3)ccc12 (stereo unspecified) | 4.71
36 | CCOC(=O)C(C)Oc1cccc2c(=O)n(CC(=O)NCc3ccccc3)ccc12 (stereo unspecified) | 1.06
37 | CCCCOc1cccc2c(=O)n(CC(=O)Nc3ccc4c(c3)OCCO4)ccc12 | 13.7
38 | CCOC(=O)C(C)Oc1cccc2c(=O)n(CC(=O)N(C)c3ccc4c(c3)OCCO4)ccc12 (stereo unspecified) | 3.57
39 | CCOC(=O)C(C)Oc1cccc2c(=O)n(CC(=O)NCc3ccc(F)cc3)ccc12 (stereo unspecified) | 0.68
40 | CCOC(=O)C(C)Oc1cccc2c(=O)n(CC(=O)Nc3ccc([N+](=O)[O-])cc3)ccc12 (stereo unspecified) | 0.53
41 | CCOC(=O)C(C)Oc1cccc2c(=O)n(CC(=O)NC3CCCCC3)ccc12 (stereo unspecified) | 1.77
42 | CCCCNC(=O)Cn1ccc2c(OC(C)C(=O)OCC)cccc2c1=O (stereo unspecified) | 9.71
43 | CCOC(=O)C(C)Oc1cccc2c(=O)n(CC(=O)Nc3ccc4c(c3)OCCO4)ccc12 (stereo unspecified) | 0.76
44 | CCOC(=O)C(C)(C)Oc1cccc2c(=O)n(CC(=O)Nc3ccc4c(c3)OCCO4)ccc12 | 0.59

Results, then the compound that gave them:

Row | IC50 [µM] | Compound
45 | 0.34 | CCOC(=O)C(C)Oc1cccc2c(=O)n(CC(=O)Nc3ccc(C)cc3)ccc12 (stereo unspecified)
46 | 0.36 | CCOC(=O)C(C)Oc1cccc2c(=O)n(CC(=O)NCCc3ccccc3)ccc12 (stereo unspecified)
47 | 0.2 | CCOC(=O)C(C)Oc1cccc2c(=O)n(CC(=O)Nc3ccc(OC(F)(F)F)cc3)ccc12 (stereo unspecified)
48 | 0.26 | CCOC(=O)C(C)Oc1cccc2c(=O)n(CC(=O)NCc3ccc4c(c3)OCO4)ccc12 (stereo unspecified)
49 | 0.11 | CCOC(=O)C(C)Oc1cccc2c(=O)n(CC(=O)Nc3ccc(CC)cc3)ccc12 (stereo unspecified)
50 | 0.19 | CCOC(=O)C(C)Oc1cccc2c(=O)n(CC(=O)Nc3ccc(OCC)cc3)ccc12 (stereo unspecified)
51 | 0.36 | CCCCc1ccc(NC(=O)Cn2ccc3c(OC(C)C(=O)OCC)cccc3c2=O)cc1 (stereo unspecified)
52 | 0.2 | CCOC(=O)C(C)Oc1cccc2c(=O)n(CC(=O)Nc3ccc(OC)cc3)ccc12 (stereo unspecified)

Molecular target: T3, Nuclear receptor ROR-alpha (Homo sapiens, UniProt P35398)
T3 sequence (P35398 whole entry): T1 sequence (whole entry)
Test: Inhibition of GAL4-tagged RORalpha by luciferase assay

Row | Compound | IC50 [µM]
53 | CCOC(=O)C(C)Oc1cccc2c(=O)n(CC(=O)NCc3ccco3)ccc12 (stereo unspecified) | > 33
54 | CCOC(=O)C(C)Oc1cccc2c(=O)n(CC(=O)NCc3ccccc3)ccc12 (stereo unspecified) | 3.22
55 | CCCCOc1cccc2c(=O)n(CC(=O)Nc3ccc4c(c3)OCCO4)ccc12 | 21.5
56 | CCOC(=O)C(C)Oc1cccc2c(=O)n(CC(=O)NCc3ccc(F)cc3)ccc12 (stereo unspecified) | 1.68
57 | CCOC(=O)C(C)Oc1cccc2c(=O)n(CC(=O)Nc3ccc4c(c3)OCCO4)ccc12 (stereo unspecified) | > 33

Results, then the compound that gave them:

Row | IC50 [µM] | Compound
58 | 36.5 | CCOC(=O)C(C)Oc1cccc2c(=O)n(CC(=O)Nc3ccc(C)cc3)ccc12 (stereo unspecified)
59 | > 33 | CCOC(=O)C(C)Oc1cccc2c(=O)n(CC(=O)NCCc3ccccc3)ccc12 (stereo unspecified)
60 | > 33 | CCOC(=O)C(C)Oc1cccc2c(=O)n(CC(=O)NCc3ccc4c(c3)OCO4)ccc12 (stereo unspecified)
61 | 25 | CCOC(=O)C(C)Oc1cccc2c(=O)n(CC(=O)Nc3ccc(CC)cc3)ccc12 (stereo unspecified)
62 | 22.6 | CCOC(=O)C(C)Oc1cccc2c(=O)n(CC(=O)Nc3ccc(OCC)cc3)ccc12 (stereo unspecified)
63 | 30.7 | CCCCc1ccc(NC(=O)Cn2ccc3c(OC(C)C(=O)OCC)cccc3c2=O)cc1 (stereo unspecified)

Molecular target: T2, Steroidogenic factor 1
Test: Inhibition of GAL4-tagged NR5A1 at 100 uM by luciferase assay

Row | inhibition [%] | Compound
64 | < 50 | CCOC(=O)C(C)Oc1cccc2c(=O)n(C(Cc3ccccc3)C(=O)Nc3ccc4c(c3)OCCO4)ccc12 (stereo unspecified)
65 | < 50 | CCOC(=O)C(C)Oc1cccc2c(=O)n(C(C)C(=O)Nc3ccc4c(c3)OCCO4)ccc12 (stereo unspecified)
66 | < 50 | CCOC(=O)C(C)Oc1ccc2c(=O)n(CC(=O)Nc3ccc4c(c3)OCCO4)ccc2c1 (stereo unspecified)
